Tests used:
lipoamide = compound: NC(=O)CCCCC1CCSS1 [lipoamide]; experiment: thermal stability z-score vs DMSO; higher = more thermally stabilized by treatment; details: HeLa, lipoamide concentration 100 µM
Procedure: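 Cellular thermal proteome profiling in HeLa cells. Cells were treated with 100 µM lipoamide for 1 h, with or without 1 mM arsenate for a further 1 h, then heated to ten temperatures (37-66.3 °C), and soluble protein was quantified by TMT mass spectrometry relative to 0.1% DMSO controls. The thermal stability score (sum of log2 fold changes minus the abundance score) was transformed to a z-score; mean of n = 3 experiments.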

potassium arsenate = compound: O=[As]([O-])(O)O.[K+] [potassium arsenate]; experiment: as above; details: HeLa; arsenate concentration 1 mM
Procedure: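 Cellular thermal proteome profiling in HeLa cells treated with 1 mM arsenate for 1 h (DMSO pretreatment), heated to ten temperatures (37-66.3 °C). Soluble protein was quantified by TMT mass spectrometry relative to DMSO controls; the thermal stability score was transformed to a z-score; mean of n = 3 experiments.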

[1] = arsenate co-treatment: 1 mM arsenate 1 h
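Also: each temperature applied for 3 min, abundance score taken as mean log2 fold change at the two lowest temperatures, z-score obtained by mean subtraction and division by SD.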

Sequence of UniProt P48637 (P48637 whole entry): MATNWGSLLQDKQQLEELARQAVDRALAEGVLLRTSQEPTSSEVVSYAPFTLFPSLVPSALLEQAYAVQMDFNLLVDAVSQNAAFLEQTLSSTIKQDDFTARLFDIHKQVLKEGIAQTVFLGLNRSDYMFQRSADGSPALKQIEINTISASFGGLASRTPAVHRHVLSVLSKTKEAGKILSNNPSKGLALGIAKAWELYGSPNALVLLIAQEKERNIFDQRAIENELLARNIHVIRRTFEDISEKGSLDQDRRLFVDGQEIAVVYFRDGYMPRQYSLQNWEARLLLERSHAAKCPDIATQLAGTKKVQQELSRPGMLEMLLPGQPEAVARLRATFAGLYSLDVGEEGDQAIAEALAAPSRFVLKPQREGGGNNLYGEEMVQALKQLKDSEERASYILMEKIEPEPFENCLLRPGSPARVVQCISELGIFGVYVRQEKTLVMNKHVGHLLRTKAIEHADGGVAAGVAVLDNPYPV
Sequence of UniProt P49841 (P49841 whole entry, looked up): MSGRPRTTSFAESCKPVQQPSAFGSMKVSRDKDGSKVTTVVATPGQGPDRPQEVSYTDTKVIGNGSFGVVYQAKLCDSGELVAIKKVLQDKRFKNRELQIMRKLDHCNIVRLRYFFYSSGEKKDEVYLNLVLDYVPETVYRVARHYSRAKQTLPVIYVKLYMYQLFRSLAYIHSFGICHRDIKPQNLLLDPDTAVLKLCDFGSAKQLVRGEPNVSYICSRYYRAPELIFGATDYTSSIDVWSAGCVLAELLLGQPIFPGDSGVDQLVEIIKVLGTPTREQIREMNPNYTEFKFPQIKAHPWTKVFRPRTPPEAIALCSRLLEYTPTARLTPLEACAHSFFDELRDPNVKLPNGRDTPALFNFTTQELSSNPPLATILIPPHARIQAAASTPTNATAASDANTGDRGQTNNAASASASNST
Sequence of UniProt P13984 (P13984 whole entry): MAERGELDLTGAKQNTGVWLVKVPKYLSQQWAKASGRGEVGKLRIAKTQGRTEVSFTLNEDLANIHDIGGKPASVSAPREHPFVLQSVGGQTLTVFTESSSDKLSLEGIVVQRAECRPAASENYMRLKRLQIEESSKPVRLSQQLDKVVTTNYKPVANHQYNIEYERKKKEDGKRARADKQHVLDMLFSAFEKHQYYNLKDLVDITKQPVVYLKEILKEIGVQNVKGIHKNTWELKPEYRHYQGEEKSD
Sequence of UniProt Q8TAA5 (Q8TAA5 whole entry): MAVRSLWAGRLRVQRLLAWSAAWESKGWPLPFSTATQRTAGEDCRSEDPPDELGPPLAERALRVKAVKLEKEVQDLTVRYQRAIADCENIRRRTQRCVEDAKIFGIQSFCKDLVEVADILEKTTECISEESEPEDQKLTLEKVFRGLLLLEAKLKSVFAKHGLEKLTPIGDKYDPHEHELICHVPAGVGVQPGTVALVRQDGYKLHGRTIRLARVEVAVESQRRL
Sequence of UniProt P36969 (P36969 whole entry): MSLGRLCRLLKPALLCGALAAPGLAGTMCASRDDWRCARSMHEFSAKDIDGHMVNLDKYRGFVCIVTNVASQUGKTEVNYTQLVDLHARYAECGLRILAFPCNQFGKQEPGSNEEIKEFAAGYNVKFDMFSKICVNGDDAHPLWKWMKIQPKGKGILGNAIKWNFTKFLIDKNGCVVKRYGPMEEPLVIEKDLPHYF
Sequence of UniProt Q00403 (Q00403 whole entry): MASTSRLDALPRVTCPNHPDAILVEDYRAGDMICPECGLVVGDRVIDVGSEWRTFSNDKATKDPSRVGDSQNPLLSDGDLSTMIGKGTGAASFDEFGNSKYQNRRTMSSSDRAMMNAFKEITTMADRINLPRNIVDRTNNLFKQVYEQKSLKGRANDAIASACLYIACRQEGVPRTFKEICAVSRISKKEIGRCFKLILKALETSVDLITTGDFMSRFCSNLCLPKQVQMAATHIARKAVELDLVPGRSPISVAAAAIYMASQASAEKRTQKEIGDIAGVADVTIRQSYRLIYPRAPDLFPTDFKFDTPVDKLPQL
Sequence of UniProt Q13098 (Q13098 whole entry): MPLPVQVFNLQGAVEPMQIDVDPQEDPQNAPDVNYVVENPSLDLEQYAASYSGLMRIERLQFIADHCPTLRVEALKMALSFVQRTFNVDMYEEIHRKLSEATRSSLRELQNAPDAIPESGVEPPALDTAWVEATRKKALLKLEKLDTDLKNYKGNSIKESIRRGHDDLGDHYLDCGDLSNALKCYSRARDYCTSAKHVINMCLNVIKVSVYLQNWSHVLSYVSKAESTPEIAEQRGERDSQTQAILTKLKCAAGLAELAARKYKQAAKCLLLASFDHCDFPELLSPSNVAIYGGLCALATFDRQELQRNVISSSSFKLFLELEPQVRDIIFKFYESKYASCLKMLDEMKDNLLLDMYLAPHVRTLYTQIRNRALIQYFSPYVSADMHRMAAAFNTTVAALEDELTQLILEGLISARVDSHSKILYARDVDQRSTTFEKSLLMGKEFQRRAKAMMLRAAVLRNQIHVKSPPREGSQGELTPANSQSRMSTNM
Sequence of UniProt Q9BQ67 (Q9BQ67 whole entry): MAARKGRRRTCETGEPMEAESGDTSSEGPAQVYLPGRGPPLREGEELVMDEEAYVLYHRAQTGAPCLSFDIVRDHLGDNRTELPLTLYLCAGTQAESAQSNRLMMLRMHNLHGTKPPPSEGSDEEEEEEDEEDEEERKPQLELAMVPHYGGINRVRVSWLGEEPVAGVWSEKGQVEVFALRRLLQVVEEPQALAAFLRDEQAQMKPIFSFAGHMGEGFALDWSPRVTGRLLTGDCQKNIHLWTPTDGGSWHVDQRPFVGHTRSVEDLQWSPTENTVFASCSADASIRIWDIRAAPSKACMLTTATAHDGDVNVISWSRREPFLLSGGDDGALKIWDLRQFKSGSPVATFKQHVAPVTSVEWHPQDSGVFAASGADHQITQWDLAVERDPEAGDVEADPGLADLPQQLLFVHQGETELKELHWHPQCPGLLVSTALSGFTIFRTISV
Sequence of UniProt O43708 (O43708 whole entry): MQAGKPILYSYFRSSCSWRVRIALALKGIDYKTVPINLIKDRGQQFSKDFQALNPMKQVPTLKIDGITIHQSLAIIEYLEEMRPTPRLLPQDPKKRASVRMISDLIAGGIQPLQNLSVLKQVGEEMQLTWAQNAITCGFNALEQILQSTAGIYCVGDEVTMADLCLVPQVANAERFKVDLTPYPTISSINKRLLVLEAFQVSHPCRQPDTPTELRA
Sequence of UniProt Q96HH9 (Q96HH9 whole entry): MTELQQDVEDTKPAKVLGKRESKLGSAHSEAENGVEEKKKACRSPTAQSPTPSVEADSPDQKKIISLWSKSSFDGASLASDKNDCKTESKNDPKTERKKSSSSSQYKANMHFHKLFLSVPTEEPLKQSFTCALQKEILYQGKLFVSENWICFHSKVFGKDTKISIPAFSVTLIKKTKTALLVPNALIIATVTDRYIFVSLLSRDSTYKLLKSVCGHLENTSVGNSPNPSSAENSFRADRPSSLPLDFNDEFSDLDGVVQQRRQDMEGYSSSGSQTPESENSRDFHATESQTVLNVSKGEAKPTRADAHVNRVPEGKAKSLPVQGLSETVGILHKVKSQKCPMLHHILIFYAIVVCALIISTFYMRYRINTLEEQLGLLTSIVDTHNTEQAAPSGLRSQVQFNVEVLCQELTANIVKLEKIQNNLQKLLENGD
Sequence of UniProt Q96CP6 (Q96CP6 whole entry): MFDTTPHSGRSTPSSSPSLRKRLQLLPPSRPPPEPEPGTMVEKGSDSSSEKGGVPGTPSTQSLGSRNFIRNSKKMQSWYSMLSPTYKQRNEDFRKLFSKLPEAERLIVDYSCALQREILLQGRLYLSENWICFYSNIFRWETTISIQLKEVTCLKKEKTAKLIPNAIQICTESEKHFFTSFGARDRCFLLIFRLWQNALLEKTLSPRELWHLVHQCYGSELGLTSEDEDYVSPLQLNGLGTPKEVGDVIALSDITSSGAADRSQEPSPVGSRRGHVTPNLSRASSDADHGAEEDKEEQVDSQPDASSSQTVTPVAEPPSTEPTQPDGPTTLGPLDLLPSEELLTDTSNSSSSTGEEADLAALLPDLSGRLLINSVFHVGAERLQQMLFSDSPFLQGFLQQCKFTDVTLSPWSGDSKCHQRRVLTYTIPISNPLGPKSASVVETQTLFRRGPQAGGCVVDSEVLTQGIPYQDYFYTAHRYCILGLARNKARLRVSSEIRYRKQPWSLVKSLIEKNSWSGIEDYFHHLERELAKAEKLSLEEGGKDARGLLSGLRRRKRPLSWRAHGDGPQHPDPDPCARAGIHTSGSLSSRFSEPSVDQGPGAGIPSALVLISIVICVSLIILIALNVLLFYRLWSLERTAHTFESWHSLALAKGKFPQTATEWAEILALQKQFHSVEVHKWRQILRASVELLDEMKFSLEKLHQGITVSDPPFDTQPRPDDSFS
Sequence of UniProt Q12849 (Q12849 whole entry): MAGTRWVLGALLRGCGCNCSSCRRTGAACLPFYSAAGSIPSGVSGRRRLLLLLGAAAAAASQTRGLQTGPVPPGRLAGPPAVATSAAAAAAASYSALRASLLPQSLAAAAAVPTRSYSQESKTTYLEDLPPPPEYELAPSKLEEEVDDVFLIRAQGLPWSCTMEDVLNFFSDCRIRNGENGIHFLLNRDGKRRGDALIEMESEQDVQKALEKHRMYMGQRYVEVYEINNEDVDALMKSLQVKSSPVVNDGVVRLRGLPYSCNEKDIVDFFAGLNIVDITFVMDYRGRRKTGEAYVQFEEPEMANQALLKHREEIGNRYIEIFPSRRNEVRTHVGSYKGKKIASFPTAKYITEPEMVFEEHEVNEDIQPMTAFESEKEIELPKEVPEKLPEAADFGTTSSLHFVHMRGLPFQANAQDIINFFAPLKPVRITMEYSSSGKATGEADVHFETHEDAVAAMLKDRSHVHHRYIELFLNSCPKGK
Sequence of UniProt P30711 (P30711 whole entry): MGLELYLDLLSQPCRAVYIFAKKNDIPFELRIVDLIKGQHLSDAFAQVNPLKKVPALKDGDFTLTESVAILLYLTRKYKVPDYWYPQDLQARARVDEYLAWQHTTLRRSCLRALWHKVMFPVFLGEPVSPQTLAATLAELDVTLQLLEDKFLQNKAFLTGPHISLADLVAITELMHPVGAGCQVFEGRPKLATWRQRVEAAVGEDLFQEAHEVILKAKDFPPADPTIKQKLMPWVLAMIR

Target	thermal stability z-score (lipoamide; [1])	thermal stability z-score (lipoamide; arsenate co-treatment: none)	thermal stability z-score (potassium arsenate)
GPCPD1 (UniProt Q9NPB8)	0.65	0.136	2.8
GPD1L (UniProt Q8N335)	0.106	-0.108	-0.935
GPD2 (UniProt P43304)	0.223	0.223	-0.0843
GPHN (UniProt Q9NQX3)	-0.406	-0.149	-0.949
GPKOW (UniProt Q92917)	0.182	0.0635	-1.58
GPN1 (UniProt Q9HCN4)	-0.0201	-0.00238	0.212
GPN2 (UniProt Q9H9Y4)	0.0332	0.0213	-0.222
GPN3 (UniProt Q9UHW5)	-0.0577	-0.282	-0.524
GPR89A|GPR89B	-0.28	-0.026	-0.0938
GPR107 (UniProt Q5VW38)	-0.0315	0.243	0.169
GPR108 (UniProt Q9NPR9)	0.455	-0.359	0.967
GPR126 (UniProt Q86SQ4)	-1.33	-1.02	-0.42
GPRC5A (UniProt Q8NFJ5)	0.158	-0.194	0.816
GPRIN1 (UniProt Q7Z2K8)	0.529	-0.0428	-0.256
GPS1 (UniProt Q13098)	0.881	0.892	0.904
GPT2 (UniProt Q8TD30)	0.342	0.427	-0.153
GPX1 (UniProt P07203)	0.0953	0.0517	-0.087
GPX4 (UniProt P36969)	-0.524	-0.696	0.286
GPX8 (UniProt Q8TED1)	-4.37	-5.4	0.394
GRAMD1A (UniProt Q96CP6)	-1.5	-1.05	0.0677
GRAMD1B (UniProt Q3KR37)	-0.102	0.0763	-0.00294
GRAMD3 (UniProt Q96HH9)	0.155	0.0561	-0.0476
GRB2 (UniProt P62993)	0.496	0.364	0.0852
GRB10 (UniProt Q13322)	-0.159	-0.12	-0.636
GRHPR (UniProt Q9UBQ7)	-0.261	0.411	1.22
GRIPAP1 (UniProt Q4V328)	0.163	0.254	1.53
GRN (UniProt P28799)	0.151	-0.477	0.505
GRPEL1 (UniProt Q9HAV7)	-0.953	0.246	-0.236

Target	thermal stability z-score (lipoamide; [1])	thermal stability z-score (lipoamide; arsenate co-treatment: none)	thermal stability z-score (potassium arsenate)
GRPEL2 (UniProt Q8TAA5)	-0.105	-0.123	0.107
GRSF1 (UniProt Q12849)	-0.892	-0.354	0.26
GRWD1 (UniProt Q9BQ67)	0.304	0.0318	-0.541
GSDMD (UniProt P57764)	0.143	0.362	-0.198
GSE1 (UniProt Q14687)	0.0903	0.0397	-0.12
GSK3A (UniProt P49840)	-0.401	-0.28	-0.881
GSK3B (UniProt P49841)	-0.109	-0.308	0.326
GSN (UniProt P06396)	0.0431	-0.257	0.0381
GSPT1 (UniProt P15170)	-0.00711	0.472	0.226
GSPT2 (UniProt Q8IYD1)	-0.0489	-0.153	-0.621
GSR (UniProt P00390)	0.558	0.347	-0.106
GSS (UniProt P48637)	-0.2	-0.141	-0.183
GSTCD (UniProt Q8NEC7)	0.682	0.492	-0.0694
GSTK1 (UniProt Q9Y2Q3)	-0.0293	0.351	-0.0332
GSTM3 (UniProt P21266)	0.731	0.402	1.48
GSTO1 (UniProt P78417)	3	2.41	0.362
GSTT1 (UniProt P30711)	1.07	0.0783	-0.279
GSTT2|GSTT2B|EM	0.517	0.277	-0.23
GSTZ1 (UniProt O43708)	-0.243	0.0552	0.239
GTF2A1 (UniProt P52655)	1.26	1.56	1.02
GTF2A2 (UniProt P52657)	-0.322	-0.782	-0.823
GTF2B (UniProt Q00403)	-0.0775	0.338	-1.93
GTF2E1 (UniProt P29083)	-0.0787	0.126	0.733
GTF2E2 (UniProt P29084)	-0.693	-0.556	0.0275
GTF2F1 (UniProt P35269)	-0.208	-0.0526	-0.307
GTF2F2 (UniProt P13984)	0.00925	-0.239	-0.198
GTF2H1 (UniProt P32780)	-0.0618	-0.0128	-0.0702

Source: the supplement of paper PMC12463676, “Small-molecule dissolution of stress granules by redox modulation benefits ALS models” (Nature Chemical Biology, 2025)
